# Results from patent publication US6555650B1, “Cyclic analogs of histatins” (priority 1999, dated 2003).
# Positions of bridges follow the written chain, without caps; N, C: chain ends. Residues, ends and D or L forms follow the SMILES beside them. No end group written: not given here.
# Legend:
# S. cerevisiae = assay: fungistatic MIC assay in antifungal agar; format: cell-based; conditions: for activity after additional deletions at the C-terminal: relative to Db2-121
# Protocol: The compounds of Table 1 were tested for fungistatic activity with an assay based on the work of Gordon, Lapa et.al. (18) with the nonpathogenic yeast S. cerevisiae in which ketoconazole is used as control. A semisolid is prepared to which is added serial dilutions of peptide. This antifungal agar is distributed in a well plate, and the S. Cerevisiae inoculum is then added to each well. Both ketokonoazole and H-5 are used as positive controls and buffer is used as a control blank. Minimum inhibitory concentration MIC, i.e. the concentration of the peptide under test which prevents growth, as observed visually, is recorded for each sample so that low values of MIC indicate potent antifungal compounds.
# More specifically, stock peptide solutions (600 microliters or 1 ml) were prepared to 10 times the final concentration of the most concentrated test sample in a sodium phosphate buffer (0.01 M0, pH 7.4). Peptide concentrations were determined by UV absorbance at λ=275. Control blanks were also prepared using 1 ml buffer Five serial dilutions were made in sterile culture tubes with buffer to create a range of peptide concentrations. The final volume in each tube was either 300 microliter or 1 ml. Agar medium (2.7 or 4.5 ml) was added to each tube and mixed. Aliquots (1 ml) of each were added to a 24 well plate to give 6 different concentrations of each peptide per plate. […] A stock solution (10 mg/mL DMSO) was diluted 1:49 with buffer. A range of final concentrations of 20 to 0.16 micrograms/ml was tested. In addition, in later analog assays, H-5 was included as a positive peptide control. Histatin 5 was tested in a range from 200 micromolar to 6.3 micromolar. Other analogs were tested at concentrations anywhere from 200 μM down to 0.14 μM ubtil the analog with lowest MIC concentration was identified.
# S. cerevisiae cells grown overnight were centrifuged and washed with a 0.85% saline solution, three times. Cell concentration was adjusted to 85% transmission at λ=530 with saline solution. Cells were further diluted 1:19. Inoculant (10 microL) was added to the peptide-containing medium. The cells were incubated on this medium for 24 hours at 37° C. The fungistatic MIC for these compounds was defined as the minimum concentration required to achieve 100% inhibition after 24 hours.
# C. albicans = conditions: against C. albicans; cited from earlier work
# [1] = S. cerevisiae, minimum concentration for 100% inhibition after 24 hours at 37° C.
Molecule,MIC range (S. cerevisiae; [1]),other results
N=C(N)NCCC[C@H](NC(=O)[C@H](Cc1c[nH]cn1)NC(=O)[C@@H]1CSSC[C@H](NC(=O)[C@H](Cc2c[nH]cn2)NC(=O)[C@H](Cc2c[nH]cn2)NC(=O)[C@@H](N)CCCNC(=N)N)C(=O)N[C@@H](Cc2ccc(O)cc2)C(=O)N[C@@H](CCCCN)C(=O)N[C@@H](CCCNC(=N)N)C(=O)N[C@@H](CCCCN)C(=O)N[C@@H](Cc2ccccc2)C(=O)N[C@@H](Cc2c[nH]cn2)C(=O)N[C@@H](CCC(=O)O)C(=O)N[C@@H](CCCCN)C(=O)N[C@@H](Cc2c[nH]cn2)C(=O)N[C@@H](Cc2c[nH]cn2)C(=O)N1)C(=O)NCC(=O)N[C@@H](Cc1ccc(O)cc1)C(=O)O [Db2-121] (H-RHHCYKRKFHEKHHCHRGY-OH; disulfide 4-15; N-terminus assumed),–,times more potent than H-5 (S. cerevisiae; against S. cerevisiae): approximately 100 times; times more potent than ketoconazole (S. cerevisiae; against S. cerevisiae): ~10 times
"CC(=O)N1CCN(c2ccc(OCC3COC(Cn4ccnc4)(c4ccc(Cl)cc4Cl)O3)cc2)CC1 (centres unmarked) [Ketoconazole, reference compound]",4.7,–
Arg His His Cys Trp Lys Arg Lys Phe His Glu Lys His His Cys His Arg Gly Tyr (RHHCWKRKFHEKHHCHRGY; disulfide 4-15 (inferred)) [Db3-67],0.67-1.34,–
"Arg His His Cys Tyr Lys Arg Lys Cys His Glu Lys His His Cys His Arg Cys Tyr (RHHCYKRKCHEKHHCHRCY; also: cyclic analogue, ring not given here) [Db2-100]",0.63-1.25,–
Arg His His Cys Tyr Lys Arg Lys His His Glu Lys His His Cys His Arg Gly Tyr (RHHCYKRKHHEKHHCHRGY; disulfide 4-15 (inferred)) [Db3-13],2.6-5.1,–
Arg His His Cys Tyr Lys Arg Lys Phe His Glu Lys His His Cys His (RHHCYKRKFHEKHHCH; disulfide 4-15 (inferred)) [Db3-25],>5.2,–
"Arg His His Cys Tyr Lys Arg Lys Phe His Glu Lys His His Cys His Arg (RHHCYKRKFHEKHHCHR; also: cyclic analogue, ring not given here) [Db3-15]",2.6-5.2,activity after additional deletions at the C-terminal (S. cerevisiae): small loss of activity
"Arg His His Cys Tyr Lys Arg Lys Phe His Glu Lys His His Cys His Arg Gly (RHHCYKRKFHEKHHCHRG; also: cyclic analogue, ring not given here) [Db3-19]",1.3-2.6,activity after additional deletions at the C-terminal (S. cerevisiae): small loss of activity
"Arg His His Cys Tyr Lys Arg Lys Phe His Glu Lys His His Cys His Arg Gly Tyr [Db3-35] (RHHCYKRKFHEKHHCHRGY; also: cyclic analogue, ring not given here)",1.3-2.5,–
"Arg His His Cys Tyr Lys Arg Lys Phe His Glu Lys His His Cys His Arg Gly Tyr [Db3-53] (RHHCYKRKFHEKHHCHRGY; also: cyclic analogue, ring not given here)",>5,–
Arg His His Gly Cys Lys Arg Lys Phe His Glu Lys His His Cys His Arg Gly Tyr (RHHGCKRKFHEKHHCHRGY; disulfide 5-15 (inferred)) [Db2-178],2.5-5,–
Arg His His Gly Cys Lys Arg Lys Phe His Glu Lys His His Ser Cys Arg Gly Tyr (RHHGCKRKFHEKHHSCRGY; disulfide 5-16 (inferred)) [Db3-11],2.5-5,–
Arg His His Gly Tyr Cys Arg Lys Phe His Glu Lys His His Cys His Arg Gly Tyr (RHHGYCRKFHEKHHCHRGY; disulfide 6-15 (inferred)) [Db2-179],2.5-5,–
Arg His His Gly Tyr Lys Cys Lys Phe His Glu Lys His His Cys His Arg Gly Tyr (RHHGYKCKFHEKHHCHRGY; disulfide 7-15 (inferred)) [Db2-180],1.25-2.5,–
RHHCYRKFHEKHHC (cysteine pairing not given here) [Db3-30],>5.2,–
RHHKYRKFHEKHHEHRGY [Db3-41],–,MIC range (S. cerevisiae; fungistatic activity): 0.55 to 1.1 µM
histatin-5 [Peptide H-5],–,minimum inhibitory concentration (MIC) (C. albicans): 10 µg/mL
